From patent publication US10392383B2, “3-(1H-benzo[d]imidazol-2-yl)-1H-pyrazolo[4,3-b]pyridines and therapeutic uses thereof” (Samumed, LLC, priority 2015, dated 2019)

System: primary human fibroblasts derived from IPF patients (LL29 cells) treated with TGF-β1
Assay: Inhibition of the fibrotic process: αSMA staining in TGF-β1-treated LL29 fibroblasts
Type: cell-based
Settings: Fibroblast; for inhibition at 10 µM: LL29 fibroblasts treated with TGF-β1, Table 4, read-out: percent inhibition at 10 μM (given in parentheses for EC50 >10 μM); for EC50: 96 h, LL29 fibroblasts treated with TGF-β1 (20 ng/mL), 4 days, Table 4
Text: Representative compounds were screened using primary human fibroblasts (derived from IPF patients) treated with TGF-β1 to determine their ability to inhibit the fibrotic process.
Human Fibroblast Cell Culture: Primary human fibroblasts derived from IPF patients (LL29 cells) [^1Xiaoqiu Liu, et. al., “Fibrotic Lung Fibroblasts Show Blunted Inhibition by cAMP Due to Deficient cAMP Response Element-Binding Protein Phosphorylation”, Journal of Pharmacology and Experimental Therapeutics (2005), 315(2), 678-687; ^2Watts, K. L., et. al., “RhoA signaling modulates cyclin D1 expression in human lung fibroblasts; implications for idiopathic pulmonary fibrosis”, Respiratory Research (2006), 7(1), 88] were obtained from American Type Culture Collection (ATCC) and expanded in F12 medium supplemented with 15% Fetal Bovine Serum and Penicillin/Streptomycin.
Compound Screening: Each compound was dissolved in DMSO as a 10 mM stock and used to prepare compound source plates. Serial dilution (1:2, 11-point dose-response curves from 10 μM to […]) and compound transfer was performed using the ECHO 550 (Labcyte, Sunnyvale, Calif.) into 384-well clear bottom assay plates (Greiner Bio-One) with appropriate DMSO backfill for a final DMSO concentration of 0.1%. LL29 cells are plated at 1,500 cells/well in 80 μL/well F12 medium supplemented with 1% Fetal Bovine Serum. One hour after addition of the cells, TGF-β1 (Peprotech; 20 ng/mL) was added to the plates to induce fibrosis (ref. 1 and 2 above). Wells treated with TGF-β1 and containing DMSO were used as controls. Cells were incubated at 37° C. and 5% CO2 for 4 days. Following incubation for 4 days, SYTOX green nucleic acid stain (Life Technologies [Thermo Fisher Scientific]) was added to the wells at a final concentration of 1 μM and incubated at room temperature for 30 min. Cells were then fixed using 4% formaldehyde (Electron Microscopy Sciences), washed 3 times with PBS followed by blocking and permeabilization using 3% Bovine Serum Albumin (BSA; Sigma) and 0.3% Triton X-100 (Sigma) in PBS. Cells were then stained with antibody specific to α-smooth muscle actin (αSMA; Abcam) (ref. 1 and 2 above) in 3% Bovine Serum Albumin (BSA; Sigma) and 0.3% Triton X-100 (Sigma) in PBS, and incubated overnight at 4° C. Cells were then washed 3 times with PBS, followed by incubation with Alexa Flor-647 conjugated secondary antibody (Life Technologies [Thermo Fisher Scientific]) and DAPI at room temperature for 1 hour. Cells were then washed 3 times with PBS and plates were sealed for imaging. αSMA staining was imaged by excitation at 630 nm and emission at 665 nm and quantified using the Compartmental Analysis program on the CellInsight CX5 (Thermo Scientific). Dead or apoptotic cells were excluded from analysis based on positive SYTOX green staining. % of total cells positive for αSMA were counted in each well and normalized to the average of 11 wells treated with TGF-β1 on the same plate using Dotmatics' Studies Software. The normalized averages (fold change over untreated) of 3 replicate wells for each compound concentration were used to create dose-responses curves and EC50 values were calculated using non-linear regression curve fit in the Dotmatics' Studies Software. For EC50 of >10 μM, the percent inhibition at 10 μM is provided.

In the case of c1ccc2[nH]c(-c3n[nH]c4ccc(-c5cncc(OC6CCNCC6)c5)nc34)nc2c1 [Compound 656, 3-(1H-Benzo[d]imidazol-2-yl)-5-(5-(piperidin-4-yloxy)pyridin-3-yl)-1H-pyrazolo[4,3-b]pyridine], the inhibition at 10 µM is reported as 45.9% and the EC50 is reported as > 10 µM.
c1cc(-c2ccncc2)c2nc(-c3n[nH]c4ccc(-c5ccncc5)nc34)[nH]c2c1 [Compound 130, 5-(Pyridin-4-yl)-3-(4-(pyridin-4-yl)-1H-benzo[d]imidazol-2-yl)-1H-pyrazolo [4,3-b]pyridine] gave an EC50 of 1.07 µM.
In the case of c1cc(-c2ccncc2)c2nc(-c3n[nH]c4ccc(-c5cnccn5)nc34)[nH]c2c1 [Compound 584, 5-(Pyrazin-2-yl)-3-(4-(pyridin-4-yl)-1H-benzo[d]imidazol-2-yl)-1H-pyrazolo[4,3-b]pyridine], the inhibition at 10 µM is reported as 10% and the EC50 is reported as > 10 µM.
For O=C(Nc1cncc(-c2ccc3[nH]nc(-c4nc5c(-c6ccsc6)cccc5[nH]4)c3n2)c1)c1ccccc1 [Compound 291, N-(5-(3-(4-(Thiophen-3-yl)-1H-benzo[d]imidazol-2-yl)-1H-pyrazolo[4,3-b]pyridin-5-yl)pyridin-3-yl)benzamide], the EC50 was 2.62 µM.
In the case of Cc1ccc(-c2cccc3[nH]c(-c4n[nH]c5ccc(C6=CCNCC6)nc45)nc23)s1 [Compound 730, 3-(4-(5-Methylthiophen-2-yl)-1H-benzo[d]imidazol-2-yl)-5-(1,2,3,6-tetrahydropyridin-4-yl)-1H-pyrazolo[4,3-b]pyridine], the EC50 is reported as 1.34 µM.
COc1cccc(-c2cccc3[nH]c(-c4n[nH]c5ccc(-c6cn[nH]c6)nc45)nc23)c1 [Compound 1020, 3-(4-(3-Methoxyphenyl)-1H-benzo[d]imidazol-2-yl)-5-(1H-pyrazol-4-yl)-1H-pyrazolo[4,3-b]pyridine] gave an EC50 of 0.371 µM.
In the case of c1cc(-c2ccncc2)c2nc(-c3n[nH]c4ccc(-c5cncc(OC6CCNCC6)c5)nc34)[nH]c2c1 [Compound 576, 5-(5-(Piperidin-4-yloxy)pyridin-3-yl)-3-(4-(pyridin-4-yl)-1H-benzo[d]imidazol-2-yl)-1H-pyrazolo[4,3-b]pyridine], the inhibition at 10 µM is reported as 9.2% and the EC50 is reported as > 10 µM.
CN(C)CCNc1cc(F)cc(-c2cccc3[nH]c(-c4n[nH]c5ccc(-c6cncc(OCc7ccccc7)c6)nc45)nc23)c1 [Compound 790, N^1-(3-(2-(5-(5-(Benzyloxy)pyridin-3-yl)-1H-pyrazolo[4,3-b]pyridin-3-yl)-1H-benzo[d]imidazol-4-yl)-5-fluorophenyl)-N^2,N^2-dimethylethane-1,2-diamine] gave an EC50 of 0.798 µM.
Fc1cccc(-c2cccc3[nH]c(-c4n[nH]c5ccc(-c6cncc(CN7CCC(F)(F)C7)c6)nc45)nc23)c1 [Compound 26, 5-(5-((3,3-Difluoropyrrolidin-1-yl)methyl)pyridin-3-yl)-3-(4-(3-fluorophenyl)-1H-benzo[d]imidazol-2-yl)-1H-pyrazolo[4,3-b]pyridine] showed an EC50 of 1.65 µM.
With COc1cccc(-c2cccc3[nH]c(-c4n[nH]c5ccc(-c6cncc(OC7CCNCC7)c6)nc45)nc23)c1 [Compound 1025, 3-(4-(3-Methoxyphenyl)-1H-benzo[d]imidazol-2-yl)-5-(5-(piperidin-4-yloxy)pyridin-3-yl)-1H-pyrazolo[4,3-b]pyridine] the EC50 was 2.11 µM.
Compound c1ccc(CNCc2cncc(-c3ccc4[nH]nc(-c5nc6c(-c7cccnc7)cccc6[nH]5)c4n3)c2)cc1 [Compound 108, N-Benzyl-1-(5-(3-(4-(pyridin-3-yl)-1H-benzo[d]imidazol-2-yl)-1H-pyrazolo [4,3-b]pyridin-5-yl)pyridin-3-yl)methanamine] has an EC50 of 2.54 µM.
Compound O=C(CC1CCNCC1)Nc1cncc(-c2ccc3[nH]nc(-c4nc5c(-c6ccsc6)cccc5[nH]4)c3n2)c1 [Compound 673, 2-(Piperidin-4-yl)-N-(5-(3-(4-(thiophen-3-yl)-1H-benzo[d]imidazol-2-yl)-1H-pyrazolo[4,3-b]pyridin-5-yl)pyridin-3-yl)acetamide] has an EC50 of 2.78 µM.
COc1cccc(-c2cccc3[nH]c(-c4n[nH]c5ccc(-c6cncc(NC(=O)C7CCCCC7)c6)nc45)nc23)c1 [Compound 1012, N-(5-(3-(4-(3-Methoxyphenyl)-1H-benzo[d]imidazol-2-yl)-1H-pyrazolo[4,3-b]pyridin-5-yl)pyridin-3-yl)cyclohexanecarboxamide] was tested, and the inhibition at 10 µM was 36.9% and the EC50 was > 10 µM.
Work on O=C(Nc1cncc(-c2ccc3[nH]nc(-c4nc5c(-c6ccccn6)cccc5[nH]4)c3n2)c1)c1ccccc1 [Compound 151, N-(5-(3-(4-(Pyridin-2-yl)-1H-benzo[d]imidazol-2-yl)-1H-pyrazolo[4,3-b]pyridin-5-yl)pyridin-3-yl)benzamide] yielded an EC50 of 5.11 µM.
In the case of CC(C)(C)CC(=O)Nc1cncc(-c2ccc3[nH]nc(-c4nc5c(-c6ccccc6F)cccc5[nH]4)c3n2)c1 [Compound 72, N-(5-(3-(4-(2-Fluorophenyl)-1H-benzo[d]imidazol-2-yl)-1H-pyrazolo[4,3-b]pyridin-5-yl)pyridin-3-yl)-3,3-dimethylbutanamide], the EC50 is reported as 2.18 µM.
c1ccc2[nH]c(-c3n[nH]c4ccc(-c5cn[nH]c5)nc34)nc2c1 [Compound 651, 3-(1H-Benzo[d]imidazol-2-yl)-5-(1H-pyrazol-4-yl)-1H-pyrazolo[4,3-b]pyridine] was tested, and the inhibition at 10 µM was 0% and the EC50 was > 10 µM.
Cc1cn(-c2cccc3[nH]c(-c4n[nH]c5ccc(-c6cncc(OCCN(C)C)c6)nc45)nc23)cn1 [Compound 627, N,N-Dimethyl-2-((5-(3-(4-(4-methyl-1H-imidazol-1-yl)-1H-benzo[d]imidazol-2-yl)-1H-pyrazolo[4,3-b]pyridin-5-yl)pyridin-3-yl)oxy)ethan-1-amine] showed an EC50 of 6.76 µM.
In the case of c1cc(-c2ccc3c(c2)OCO3)c2nc(-c3n[nH]c4ccc(C5CCNCC5)nc34)[nH]c2c1 [Compound 1108, 3-(4-(Benzo[d][1,3]dioxol-5-yl)-1H-benzo[d]imidazol-2-yl)-5-(piperidin-4-yl)-1H-pyrazolo[4,3-b]pyridine], the inhibition at 10 µM is reported as 14.1% and the EC50 is reported as > 10 µM.
Cn1cc(-c2ccc3[nH]nc(-c4nc5c(-c6cc(F)cc(CNS(C)(=O)=O)c6)cccc5[nH]4)c3n2)cn1 [Compound 764, N-(3-Fluoro-5-(2-(5-(1-methyl-1H-pyrazol-4-yl)-1H-pyrazolo[4,3-b]pyridin-3-yl)-1H-benzo[d]imidazol-4-yl)benzyl)methanesulfonamide] gave an EC50 of 1.99 µM.
Work on CN(C)c1cncc(-c2ccc3[nH]nc(-c4nc5c(N6CCCCC6)cccc5[nH]4)c3n2)c1 [Compound 175, N,N-dimethyl-5-(3-(4-(piperidin-1-yl)-1H-benzo[d]imidazol-2-yl)-1H-pyrazolo[4,3-b]pyridin-5-yl)pyridin-3-amine] yielded an EC50 of 4.69 µM.
Work on Cn1cc(-c2ccc3[nH]nc(-c4nc5c(-c6ccc(F)cc6)cccc5[nH]4)c3n2)c(CO)n1 [Compound 1129, (4-(3-(4-(4-Fluorophenyl)-1H-benzo[d]imidazol-2-yl)-1H-pyrazolo[4,3-b]pyridin-5-yl)-1-methyl-1H-pyrazol-3-yl)methanol] yielded an EC50 of 1.2 µM.
Work on O=C(Nc1cncc(-c2ccc3[nH]nc(-c4nc5c(-c6ccccc6F)cccc5[nH]4)c3n2)c1)C1CCCC1 [Compound 78, N-(5-(3-(4-(2-Fluorophenyl)-1H-benzo[d]imidazol-2-yl)-1H-pyrazolo[4,3-b]pyridin-5-yl)pyridin-3-yl)cyclopentanecarboxamide] yielded an EC50 of 2.49 µM.
CN(C)CCNc1cc(F)cc(-c2cccc3[nH]c(-c4n[nH]c5ccc(-c6cnccn6)nc45)nc23)c1 [Compound 792, N^1-(3-Fluoro-5-(2-(5-(pyrazin-2-yl)-1H-pyrazolo[4,3-b]pyridin-3-yl)-1H-benzo[d]imidazol-4-yl)phenyl)-N^2,N^2-dimethylethane-1,2-diamine] showed an EC50 of 1.9 µM.
With Cc1cn(-c2cccc3[nH]c(-c4n[nH]c5ccc(-c6cncc(N7CC(N)C7)n6)nc45)nc23)cn1 [Compound 622, 1-(6-(3-(4-(4-Methyl-1H-imidazol-1-yl)-1H-benzo[d]imidazol-2-yl)-1H-pyrazolo[4,3-b]pyridin-5-yl)pyrazin-2-yl)azetidin-3-amine] the inhibition at 10 µM was 0% and the EC50 was > 10 µM.
